Data as given in patent US20180310564A1, “Mesoionic Compound” (Nippon Kayaku Kabushiki Kaisha, priority 2015, published 2018).
Structures can show the parent of a compound that is named as a salt.

Columns and labels:
Format in all cases: in vivo
[1] = tested on: Cotton Aphid (Aphis gossypii); assay: Test (foliar spraying) for controlling cotton aphid; settings: 120 h, 5 days after treatment; for mortality at 200 ppm: foliar spraying on cucumber leaf
Description: A cucumber leaf cut to a diameter of 3.5 cm was placed on cotton wool moistened with water. Two adult cotton aphids were released there for offspring for 24 hours and the adult insects were then removed. […] After air-drying, the sample with cotton wool was placed in a plastic cup, which was covered with a lid and kept in a chamber at a constant temperature of 25° C. for rearing.

[2] = tested on: Rice Stem Borer (Chilo suppressalis); assay: Test (pot test) for controlling rice stem borer; settings: 14 days after treatment; for Browning stem ratio (%): 500 g/ha as wettable powder (Formulation Example 2) at rice roots, hatchlings released after 4 days; for Ratio to untreated (%): browning stem ratio relative to untreated, 500 g/ha
Description: The roots of five sampled rice seedlings were washed with water. The wettable powder prepared in accordance with Formulation Example 2 described above was wrapped in the roots to be planted in a Wagner pot of 1/10000 a. After 4 days from the treatment, a total of […] of rice stem borer were released per strain and reared in a plastic greenhouse with a room temperature set at 25° C. On 14 days after the treatment, the ratio of browning stem of seedlings for each strain and the ratio to untreated ones were calculated. Double system.

[3] = tested on: Brown Winged Green Stink Bug (Plautia stali); assay: Test (greenhouse test) for controlling brown winged green stink bug; settings: 100 ppm sprayed on apple fruit; for Number of abnormal insects / Number of dead insects / Number of normal insects: 5 adults released 7 days after treatment, triple system, 4 days after release; for Total number of sheaths formed by stylet insertion: fruit stained with fuchsine after examination; for Proportion of abnormal insects and dead insects on 4 days after releasing insects (%): insects released 7 days after treatment
Description: Using a commercially available hand spray, a chemical solution diluted to a concentration of 100 ppm was sprayed onto an apple fruit (cultivar: Fuji). After air-drying, the apple fruit was placed in a plastic cup, which was allowed to stand still for a specified number of […] in a plastic greenhouse with a room temperature set at 25° C. and with the natural light shining thereon. On 7 days after the treatment, 5 adult brown winged green stink bugs (without distinction between male and female) were released onto the treated fruit. On 4 days after the release of insects, the numbers of death and abnormality were observed and recorded. Triple system. Also, the fruit after examination was immersed in an acidic 0.5% fuchsine solution for 30 minutes, and then washed with water to measure the total number of sapping scars.

[4] = tested on: Inedorooimushi (Oulema oryzae); assay: Test (pot test) for controlling inedorooimushi; settings: larvae released 20 days after treatment, 2 days after release; for mortality at 500 g/ha: 500 g/ha as wettable powder at rice roots
Description: The roots of five sampled rice seedlings were washed with water. The wettable powder prepared in accordance with Formulation Example 2 described above was wrapped in the roots to be planted in a Wagner pot of 1/10000 a. After 20 days from the treatment, 3 larvae of inedorooimushi in the late instar larva were released per strain and reared in a plastic greenhouse with a room temperature set at 25° C. On 2 days after the releasing of the insects, the mortality of the insect was calculated.

[5] = tested on: Rice Leaf Beetle (Oulema oryzae); assay: Test (root dipping) for controlling rice leaf beetle; settings: 4 days after treatment; for mortality at 1.6 ppm: root dipping of rice seedlings, late instar larvae released after 2 days
Description: (§1) Ten sampled rice seedlings held with urethane in a glass cylinder having an inner diameter of 4.5 cm and a length of 14 cm were set up in a plastic cup containing 40 mL of chemical solution diluted to a desired concentration. After 2 days, 4 larvae of rice leaf beetle in the late instar larva were released in the glass cylinder. The glass cylinder was covered with a lid of medicine paper and kept in a chamber at a constant temperature of 25° C. for rearing.

[6] = tested on: Brown Planthopper (Nilaparvata lugens); assay: Residual effect test (field experiment) for brown planthopper
Description: The roots of five sampled rice seedlings were washed with water. Subsequently, 25 mg of the wettable powder prepared in accordance with Formulation Example 2 described above was wrapped in the roots. Each strain was made from the five seedlings. In outdoor artificial paddy fields made from wooden frames having a size of 60 cm by 90 cm, 10 strains were planted, respectively. The artificial paddy field was shielded by an insect screen with a mesh size of 1 mm, so that invasion of harmful insects from the outside was prevented. Into the test system, 40 to 100 adult brown planthoppers were released at fixed intervals so as to cause damage to the rice. On 16 to 51 days after the treatment, the numbers of surviving insects and dead insects were measured to calculate the density index. The density index was obtained from the following expression.

[7] = tested on: Brown Planthopper (Nilaparvata lugens); assay: Test (root dipping) for controlling brown planthopper; settings: 120 h, root dipping, 5 days after treatment
Description: as §1, with “days, 10” for “days, 4”, “of brown planthoppers” for “of rice leaf beetle”, “the third” for “the late”

[8] = tested on: Diamondback Moth (Plutella xylostella); assay: Test (foliar dipping) for controlling diamondback moth; settings: 72 h, foliar dipping of cabbage leaf, third instar larvae, 3 days after treatment
Description: A cabbage leaf cut to a diameter of 5.0 cm was dipped in the diluent of the test compounds diluted to 200 ppm in an amount of 20 mL and air-dried. After air-drying, the cabbage leaf was placed in a plastic cup, and 10 larvae of diamondback moths in the third instar larva were released there. The cup was covered with a lid and kept in a chamber at a constant temperature of 25° C. for rearing.

[9] = tested on: Sweetpotato whitefly (Bemisia tabaci); assay: Test (foliar spraying) for controlling sweetpotato whitefly; settings: 120 h, foliar spraying on cucumber leaf, female adults, 5 days after treatment
Description: A cucumber leaf cut to a diameter of 6.0 cm was placed on cotton wool moistened with water. The diluent of the test compounds diluted to 200 ppm in an amount of 2 mL was sprayed onto the cucumber leaves with a spray tower. After air-drying, the cucumber leaf was placed in a plastic cup, and 20 female adult sweetpotato whiteflies were released there. The cup was covered with a lid and kept in a chamber at a constant temperature of 25° C. for rearing.

[10] = tested on: Southern Yellow thrips (Thrips palmi); assay: Test (foliar spraying) for controlling southern yellow thrips; settings: 72 h; 200 ppm, foliar spraying on cucumber leaf, first instar larvae, 3 days after treatment
Description: A cucumber leaf cut to a diameter of 1.5 cm was placed on cotton wool moistened with water. […] After air-drying, 5 larvae of southern yellow thrips in the first instar larva were released there. The sample with cotton wool was placed in a plastic cup, which was covered with a lid and kept in a chamber at a constant temperature of 25° C. for rearing.

[11] = tested on: Brown Planthopper (Nilaparvata lugens); assay: Test (foliar dipping) for controlling brown planthopper; settings: 120 h, rice seedlings dipped, 5 days after treatment; for mortality at 200 ppm: third instar larvae
Description: […] After air-drying, the rice seedlings held with urethane in a glass cylinder having an inner diameter of 4.5 cm and a length of 14 cm were set up in a plastic cup containing 40 mL of water. Larvae of brown planthoppers in the third instar larva were released there. The cylinder was covered with a lid of medicine paper and kept in a chamber at a constant temperature of 25° C. for rearing.

[12] = After 16 days, 25 mg wettable powder (Formulation Example 2) at roots per strain, outdoor artificial paddy field
[13] = After 23 days, 25 mg wettable powder at roots per strain, artificial paddy field
[14] = After 30 days, 25 mg wettable powder at roots per strain, artificial paddy field
[15] = After 37 days, 25 mg wettable powder at roots per strain, artificial paddy field
[16] = After 44 days, 25 mg wettable powder at roots per strain, artificial paddy field
[17] = After 51 days, 25 mg wettable powder at roots per strain, artificial paddy field

| SMILES | mortality at 0.8 ppm ([1]; foliar spraying) [%] | mortality at 200 ppm [1] [%] | Browning stem ratio (%) [2] [%] | Ratio to untreated (%) [2] [%] | Number of abnormal insects [3] | Number of dead insects [3] | Number of normal insects [3] | Total number of sheaths formed by stylet insertion [3] | Proportion of abnormal insects and dead insects on 4 days after releasing insects (%) [3] [%] | mortality at 125 g/ha [4] [%] | mortality at 250 g/ha [4] [%] | Density index of Nilaparvata lugens [6, 12] | Density index of Nilaparvata lugens [6, 13] | Density index of Nilaparvata lugens [6, 14] | Density index of Nilaparvata lugens [6, 15] | Density index of Nilaparvata lugens [6, 16] | Density index of Nilaparvata lugens [6, 17] | mortality at 200 ppm [8] [%] | mortality at 200 ppm [10] [%] | mortality at 200 ppm [11] [%] | also measured |
| --- | --- | --- | --- | --- | --- | --- | --- | --- | --- | --- | --- | --- | --- | --- | --- | --- | --- | --- | --- | --- | --- |
| Cc1cccc(-c2c([O-])[n+](CCC#N)c3ccccn3c2=O)c1 [Compound 3, 1-(2-cyanoethyl)-2-hydroxy-4-oxo-3-(3-toluyl)-4H-pyrido[1,2-a]pyrimidinium inner salt] | 100 | ≥ 80 | 0 | 0 | 7 | 6 | 2 | 5 | 86.7 | 33.3 | 50 | 7.7 | 0 | 28.4 | 23.8 | 13.0 | 88.5 | ≥ 80 | ≥ 80 | ≥ 80 | mortality at 500 g/ha [4]: 100%; mortality at 1.6 ppm [5]: 100%; mortality at 0.8 ppm ([5]; 96 h, root dipping): 100%; mortality at 0.025 ppm ([7]; 0.025 ppm): 50%; mortality at 0.05 ppm ([7]; 0.05 ppm): 60%; mortality at 0.1 ppm ([7]; 0.1 ppm): 100%; mortality at 200 ppm [9]: ≥ 80%; mortality at 0.01 ppm [11]: 10%; mortality at 0.02 ppm [11]: 40%; mortality at 0.05 ppm [11]: 80% |
| N#CCC[n+]1c([O-])c(-c2cccc(C(F)(F)F)c2)c(=O)n2ccccc21 [Compound 51, 1-(2-cyanoethyl)-2-hydroxy-4-oxo-3-(3-trifluoromethylphenyl)-4H-pyrido[1,2-a]pyrimidinium inner salt] | 100 | ≥ 80 | 10 | 12 | 7 | 8 | 0 | 1 | 100 | 83.3 | 100 | 0 | 2.6 | 21.7 | 43.1 | 37.1 | 76.2 | ≥ 80 | ≥ 80 | ≥ 80 | mortality at 0.1 ppm ([1]; 0.1 ppm, foliar spraying): 100%; mortality at 500 g/ha [4]: 100%; mortality at 1.6 ppm [5]: 100%; mortality at 0.4 ppm ([5]; 96 h, 0.4 ppm, root dipping): 100%; mortality at 0.8 ppm ([5]; 96 h, root dipping): 100% |
| N#CCC[n+]1c([O-])c(-c2cccc(OC(F)(F)F)c2)c(=O)n2ccccc21 [Compound 57, 1-(2-cyanoethyl)-2-hydroxy-4-oxo-3-(3-trifluoromethoxyphenyl)-4H-pyrido[1,2-a]pyrimidinium inner salt] | – | ≥ 80 | 0 | 0 | – | – | – | – | – | – | – | 0 | 0 | 25.4 | 50.4 | 33.0 | 80.7 | ≥ 80 | ≥ 80 | ≥ 80 | – |
| N#CCC[n+]1c(O)c(-c2cccc(C(F)F)c2)c(=O)n2ccccc21 [Compound 48, 1-(2-cyanoethyl)-3-(3-difluoromethylphenyl)-2-hydroxy-4-oxo-4H-pyrido[1,2-a]pyrimidinium inner salt] | – | ≥ 80 | – | – | – | – | – | – | – | – | – | – | – | – | – | – | – | ≥ 80 | – | ≥ 80 | mortality at 200 ppm [9]: ≥ 80%; mortality at 0.01 ppm [11]: 0%; mortality at 0.02 ppm [11]: 20%; mortality at 0.05 ppm [11]: 100% |
